Experiment [1] addresses limbic D-2 dopamine receptor (Rattus norvegicus, UniProt P61169). Briefly: inhibition of limbic D-2 dopamine receptor binding (3H-spiroperidol). Further details: species or system rats. Particulars: for inhibition at 10 µM: read-out: Limbic D-2 Binding, inhibition at 10 μM. How it is done:
The test is carried out as follows:

Experiment [2] deals with conditioned avoidance (shelf-jump response). As to the kind of experiment: conditioned avoidance (shelf-jump response) test. The note with it: Rattus norvegicus, ip, read-out: AB50.
Procedure: This test is carried out as follows:
Male CD rats (Charles River) maintained at approximately 400-450 gm body weight are used. […] A moveable wall, controlled by a motor, determines whether the rat has access to the shelf at any time during the experiment. The experimental chamber also contains a house light and sonalert. A steel grid floor in the main chamber is wired for presentation of electric shock. Each trial consists of a fifteen-second warning tone (conditioned stimulus), continuing for an additional fifteen seconds accompanied by electric shock, (unconditioned stimulus). A response (jumping onto the exposed shelf of the upper chamber) occurring during the initial fifteen-second warning tone is considered an avoidance response, while a response occurring during shock delivery is considered an escape response. […]
The following experimental parameters are recorded by computer: (1) the number of avoidance responses, (2) the number of escape responses, and (3) the number of trials in which no response occurred.
Response counts are summed over all subjects at a given dose. […] This number is expressed as a percentage of the total trials. Control performance is arbitrarily assigned a value of 100% for avoidance and the dose calculated to produce a 50% block in avoidance responding (AB50) is obtained from a dose-effect regression line fitted by the method of least squares.
The mark [3] stands for this setting: rat limbic tissue, 0.3 nM 3H-spiroperidol.

Six molecules from US4675403A, “3-Aminoalkyl derivatives of 5,5-disubstituted hydantoins with psychotropic activity” (American Home Products Corporation, priority 1985, dated 1987) can be followed below.

Structures can show the parent of a compound that is named as a salt. Where two headings read alike, the source gives them in different places.

Sequence of limbic D-2 dopamine receptor (P61169 whole entry): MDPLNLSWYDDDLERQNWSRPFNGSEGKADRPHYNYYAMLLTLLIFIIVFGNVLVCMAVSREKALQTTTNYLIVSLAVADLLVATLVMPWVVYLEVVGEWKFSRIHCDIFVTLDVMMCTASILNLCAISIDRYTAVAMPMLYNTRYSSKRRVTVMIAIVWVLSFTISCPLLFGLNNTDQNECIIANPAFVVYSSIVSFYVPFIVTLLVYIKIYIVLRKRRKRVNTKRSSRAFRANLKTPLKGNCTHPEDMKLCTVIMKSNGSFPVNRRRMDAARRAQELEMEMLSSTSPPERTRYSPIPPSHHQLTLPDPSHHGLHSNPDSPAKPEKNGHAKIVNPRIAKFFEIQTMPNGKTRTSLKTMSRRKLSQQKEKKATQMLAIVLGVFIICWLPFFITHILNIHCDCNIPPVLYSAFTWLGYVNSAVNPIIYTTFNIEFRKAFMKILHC

With `O=C1NC2(CC3CCC2C3)C(=O)N1CCCCN1CCN(c2ncccn2)CC1` (centres unmarked) [Example 2, 1-[4-[4-(2-Pyrimidinyl)-1-piperazinyl]butyl]spiro[bicyclo[2.2.1]heptane-2,4'-imidazolidine]-2',5'-dione, dihydrochloride], affinity in experiment [1] (rat limbic tissue, 0.3 nM 3H-spiroperidol, Table 1) was put at a Ki of 2000 nM. Also, in experiment [2], the ED50 was 33.3 mg/kg.
Regarding `Cl.Cl.O=C1CNC(=O)N1CCCCN1CCN(c2ncccn2)CC1` [Example 3, 3-[4-[4-(2-Pyrimidinyl)-1-piperazinyl]butyl]-2,4-imidazolidinedione, dihydrochloride], the inhibition at 10 µM in experiment [1] was determined as 24%. In addition, in experiment [2], the ED50 is 45.8 mg/kg.
Regarding `O=C1NC2(CCCCC2)C(=O)N1CCCCN1CCN(c2ncccn2)CC1` [Example 4, 5,5-Pentamethylene-3-[4-[4-(2-pyrimidinyl)-4-piperazinyl]butyl]-2,4-imidazolidinedione, dihydrochloride], the inhibition at 1 µM in experiment [1] (setting [3]) was found to be 10%.
The same measure, in the same setting: next, `CC1(C)NC(=O)N(CCCCN2CCN(c3ncccn3)CC2)C1=O` [Example 5, 5,5-Dimethyl-3-[4-[4-(2-pyrimidinyl)-4-piperazinyl]butyl]-2,4-imidazolidinedione, hydrochloride]: 5%.
On to `O=C1NC2(CCCC2)C(=O)N1CCCCN1CCN(c2ncccn2)CC1` [Example 7, 5,5-Tetramethylene-3-[4-[4-(2-pyrimidinyl)-4-piperazinyl]butyl]-2,4-imidazolidinedione, dihydrochloride], for which the inhibition at 10 µM in experiment [1] (10 μM, rat limbic tissue, 0.3 nM 3H-spiroperidol) is 51%.
For `O=C1NC2(CCCC2)C(=O)N1CCCCN1CCC(O)(c2ccc(Cl)cc2)CC1` [Example 8, dihydrochloride], the inhibition at 10 µM in experiment [1] was 40%.
